Test system: INH-resistant ΔkatG H37Rv
Assay: microbe, parasite or virus in culture
Assay type: cell-based, Mycobacterium tuberculosis

| Structure (SMILES) | EC80 against ΔkatG H37Rv | microbicidal capacity compared with S-CQ or racemic CQ | inhibition at 50 µM (Mycobacterium tuberculosis, H37RV, RAW264.7) |
| --- | --- | --- | --- |
| CCN(CC)CCCC(C)Nc1ccnc2cc(Cl)ccc12 (racemic) [racemic CQ, chloroquine] | ~50 µM | – | – |
| CCN(CC)CCC[C@@H](C)Nc1ccnc2cc(Cl)ccc12 [R-CQ, (R)-chloroquine] | 1 µM | significantly higher | – |
| CCN(CC)CCC[C@H](C)Nc1ccnc2cc(Cl)ccc12 [S-CQ, (S)-chloroquine] | – | – | 60% |

From patent US20160113919A1 (The Board of Trustees of the Leland Stanford Junior …, priority 2014, published 2016)
